Measurements: patent US20080280879A1, “SUBSTITUTED HETEROCYCLIC DERIVATIVES AND THEIR PHARMACEUTICAL USE AND COMPOSITIONS” (priority 2007, published 2008)
≈ marks a conversion by molar mass, not a printed value.

Key:
Assay type in all cases: cell-based, Staphylococcus aureus
Staph aureus 1095 MRSA = test: MIC, microtiter broth dilution (CLSI M7-A7), Assay 1, Table 12 column A, no serum; conditions: Assay 1, no serum
Method in brief: (§1)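 MIC read as lowest drug level giving no macroscopically visible growth, μg/ml. Method: CLSI M7-A7 microtiter broth dilution, M100-S16 interpretation. Serum arm: inoculum in Mueller-Hinton Broth + 50% pooled inactivated human serum. Multiple runs → geometric mean.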

Staph aureus 1146 [1] = test: MIC, microtiter broth dilution (CLSI M7-A7), Assay 1, Table 12 column B, no serum; conditions: Staph aureus 1146, Assay 1, no serum
Method in brief: as §1

Staph aureus 1146 [2] = test: MIC in Mueller-Hinton Broth with 50% pooled inactivated human serum, Assay 1, Table 12; conditions: Staph aureus 1146, Assay 1, 50% human serum
Method in brief: as §1

Staph aureus 2811 = test: MIC, microtiter broth dilution (CLSI M7-A7), Assay 1, Table 12 column D, no serum; conditions: Staph aureus 2811, Assay 1, no serum
Method in brief: as §1

Staph aureus 2812 = test: MIC, microtiter broth dilution (CLSI M7-A7), Assay 1, Table 12 column E, no serum; conditions: Staph aureus 2812, Assay 1, no serum
Method in brief: as §1

Staph aureus 1031 [3] = test: MIC, microtiter broth dilution (CLSI M7-A7), Assay 2, Table 12 column F, no serum; conditions: Staph aureus 1031, Assay 2, no serum
Experimental: (§2) The assays described herein include a panel of bacterial isolates of Staphylococcus aureus. Assay 1 comprises the strains noted in Columns A through E, and Assay 2 comprises the strains noted in Columns F through H. The assays are performed in microtiter trays according to Methods for Dilution Antimicrobial Susceptibility Tests for Bacteria that Grow Aerobically; Approved Standard-7th edition (M7-A7) and interpreted according to the Performance Standards for Antimicrobial Susceptibility Testing; 16th Informational Supplement (M100-S16) published by Clinical Laboratory Standards Institute (CLSI). The antibacterial activity is presented in the form of a minimum inhibitory concentration (MIC) value in μg/ml format. The MIC value represents the lowest concentration of drug measured which prevented macroscopically visible growth under the conditions and specific doses tested. The compounds were initially dissolved in DMSO as 30 mM stocks and diluted accordingly to adjust to a concentration of 10 mg/ml or the compounds were dissolved in DMSO at a concentration of 10 mg/ml. For assessment of activity in the presence of human serum, S. aureus 1146 and S. aureus 1031 were inoculated into Mueller-Hinton Broth with 50% pooled inactivated human serum. In some cases, compounds were tested more than once in a particular assay. Where noted, the MIC value shown in Table 12 represents the geometric mean of the data from multiple runs.
(§3) It should be understood that the data in columns A-H represents MIC data in μg/ml and the notation “<=” means ‘less than or equal to’.

Staph aureus 1031 [4] = test: MIC in Mueller-Hinton Broth with 50% pooled inactivated human serum, Assay 2, Table 12 column G; conditions: Staph aureus 1031, Assay 2, 50% human serum
Experimental: as §2, §3

Staph aureus 2810 = test: MIC, microtiter broth dilution (CLSI M7-A7), Assay 2, Table 12 column H, no serum; conditions: Staph aureus 2810, Assay 2, no serum
Experimental: as §2, §3

For `COc1ccc2nccc(C(O)CC[C@@H]3CCN(C[C@@H]4C[C@H]4c4ccccc4)C[C@@H]3C(=O)O)c2c1` (stereo partly drawn) [Example 85, (3R,4R)-4-[3-hydroxy-3-(6-methoxyquinolin-4-yl)propyl]-1-{[(tans)-2-phenylcyclopropyl]methyl}piperidine-3-carboxylic acid], the “MIC, column A” value (Staph aureus 1095 MRSA) was 4 µg/mL (≈ 8.43 µM), the “MIC, column B” value (Staph aureus 1146 [1]) was 1.4142 µg/mL (≈ 2.98 µM) and the “MIC, column C” value (Staph aureus 1146 [2]) was 5.6568 µg/mL (≈ 11.9 µM). The “MIC, column D” value (Staph aureus 2811) was 1.4142 µg/mL (≈ 2.98 µM), the “MIC, column E” value (Staph aureus 2812) was 2 µg/mL (≈ 4.21 µM) and the “MIC, column F” value (Staph aureus 1031 [3]) was 2 µg/mL (≈ 4.21 µM). The “MIC, column G” value (Staph aureus 1031 [4]) was 4 µg/mL (≈ 8.43 µM) and the “MIC, column H” value (Staph aureus 2810) was 2 µg/mL (≈ 4.21 µM).
